Consider 2 molecules from patent US20060069038A1, “Irreversible caspase-3 inhibitors as active site probes” (priority 2003, published 2006).

The target of one test is T1, caspase-3 (Homo sapiens, UniProt P42574).
T1 construct: endogenous in cells; host or cells: Jurkat cells, apoptosis induced with camptothecin
T1 sequence (P42574 29-175 limits assumed): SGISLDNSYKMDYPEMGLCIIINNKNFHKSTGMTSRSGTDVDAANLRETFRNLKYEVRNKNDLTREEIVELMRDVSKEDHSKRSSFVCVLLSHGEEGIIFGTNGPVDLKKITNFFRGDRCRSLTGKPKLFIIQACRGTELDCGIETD
T1 sequence (P42574 176-277 limits assumed): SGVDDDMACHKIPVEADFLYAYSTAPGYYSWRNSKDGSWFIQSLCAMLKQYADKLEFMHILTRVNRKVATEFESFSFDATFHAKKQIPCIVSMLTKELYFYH
Briefly: [125I]-M808 labeling of caspase subunits in apoptotic Jurkat cells with caspase inhibitor. In kind it is cell-based. Conditions: increasing inhibitor concentration, FIG. 4. As to the method:
Jurkat cells (ATCC # TEB-152) were maintained in RPMI1640 supplemented with 10% FBS, 2 mM L-glutamine and antibiotics (penicillin and streptamycin). Apoptosis was induced on cells (1 million cells/ml) that had been starved for 36 hours in CytoSf4 media (Kemp technologies) by addition of camptothecin (Sigma; 3 μg/ml). NT2 cells (ATCC 3813555) were cultured in DMEM+10% FBS+2 mM L-glutamine and antibiotics. Apoptosis induced with camptothecin (5 μg/ml) in culture media.
(§1) The determination of caspase activity by [^125I]-M808 labeling was performed by pre-incubating purified recombinant human caspase-3 with indicated amounts of caspase inhibitor (M791) or vehicle (DMSO), for 1 hour at 25° C. in ICE buffer III (50 mM Hepes-KOH pH 7.0, 0.1% CHAPS, 10% sucrose, 2 mM EDTA), supplemented with 5 mM DTT. [^125I]-M808 was added to a final concentration of 1.25 μM and incubated for 5 min at 25° C. Active caspases in tissue or cell extracts were labeled by incubating 60-80 μg of lysate with [^125I]-M808 for 15 minutes at 25° C. Labeling was stopped by addition of Laemli buffer (2% SDS; 0.35 M O-mercaptoethanol; 50 mM Tris-Cl pH 6.8; 10% glycerol; 0.05% bromophenol blue) and by heating at 95° C. for 5 minutes. Caspase labeling in whole cells was performed as following. NT2 cells were plated in 24-well dishes (50 000 cells/well) in DMEM+10% FBS. […]

For test [1], the target named is T2, purified recombinant human caspase-3 (Homo sapiens, UniProt P42574).
T2 construct: Active site shared between large and small caspase subunit
T2 sequence (P42574 29-175 limits assumed): T1 sequence (P42574 29-175 limits assumed)
T2 sequence (P42574 176-277 limits assumed): T1 sequence (P42574 176-277 limits assumed)
Kind of test: Caspase inhibitor titration by [125I]-M808 labeling of purified recombinant human caspase-3 (SDS-PAGE). It counts as binding. As to the method:
FIG. 3. Potency assessment caspase inhibitors by [^125]-M808 labeling and by DEVD-AMC cleavage activity. A, B-Caspase inhibitor titration and [^125]-M808 labeling with purified recombinant human caspase-3. A-M791 with 5 minute labeling reaction and M791 with 60 minute labeling reaction. In A, the indicated IC50 was defined as the concentration of M791 that reduced the intensity of [^125I]-M808-labeled p17 subunit of caspase-3 by 50%. B-Caspase inhibitor titration and DEVD-AMC cleavage activity with recombinant human caspase-3 that had been incubated with indicated concentration of M791. Under the fluorogenic assay conditions Ki=IC50/2.
as §1, with “minutes.” for “minutes. Caspase labeling in whole cells was performed as following. NT2 cells were plated in 24-well dishes (50 000 cells/well) in DMEM+10% FBS.”

Read-outs that look alike come from different tables or passages of the source.

For the molecule `CCCCCN(C)CC(=O)[C@H](CC(=O)O)NC(=O)[C@H](CC)n1cc(C(C)(C)C)nc(NCc2nonc2C)c1=O` [Example M867, (3S)-3-({(2S)-2-[5-tert-butyl-3-{[(4-methyl-1,2,5-oxadiazol-3-yl)methyl]amino}-2-oxopyrazin-1(2H)-yl]butanoyl}amino)-5-[methyl(pentyl)amino]-4-oxopentanoic acid], the “intensity of [125I]-M808-labeled caspase-3 bands (occupancy)” value on caspase-3 is “intensity of the radiolabeled bands decreased as the concentration of M867 increased”.
The term IC50 denotes the concentration that inhibits the measured activity by half. In the case of `COc1ccc(-c2nc(C)no2)cc1CC(=O)N[C@H](C(=O)N[C@@H](CC(=O)O)C(=O)CSCc1ccccc1)C(C)C` [Example M791, (3S)-5-(benzylthio)-3-[(N-{[2-methoxy-5-(3-methyl-1,2,4-oxadiazol-5-yl)phenyl]acetyl}-L-valyl)amino]4-oxopentanoic acid], the half-inhibitory concentration (IC50) was found to be 0.45 nM in test [1] ([125I]-M808 added for 5 minutes, read-out: IC50 by [125I]-M808 labeling (50% reduction of labeled p17 subunit)) and 1 nM in test [1] (incubating with [125I]-M808 for 60 minutes instead of 5, read-out: apparent IC50 by [125I]-M808 labeling).
